Assay results published in ChEMBL document CHEMBL3885861, “Open TG-GATES”.

Species on record: Rattus norvegicus
Assay: Open TG-GATES - Regimen: Daily Repeat
Type: toxicity, organism-based, Sprague-Dawley
Design: regimen Daily Repeat, gender Male, age 6 weeks
Conditions: in vivo, iv, 0 mg/kg, route intravenous injection, dose level Control; for APTT / Bas / Eos / Fbg / Hb / Ht / Lym / MCH / MCHC / MCV / Mono / Neu / PT / Plat / RBC / Ret / WBC: tissue Blood; for KIDNEY_L / KIDNEY_R / KIDNEY_TOTAL: tissue Kidney; for LIVER: tissue Liver; for A/G / ALP / ALT / AST / BUN / CRE / Ca / Cl / DBIL / GLC / IP / K / LDH / Na / PL / RALB / TBIL / TC / TG / TP / gamma-GTP: tissue Plasma

CN(C)c1ncnc2c1ncn2[C@@H]1O[C@H](CO)[C@@H](N)[C@H]1O [PUROMYCIN AMINONUCLEOSIDE]
TERMINAL_BW (72 h, time 3 day): 230.5 g | APTT (72 h, time 3 day): 22.1 s | Bas (72 h, time 3 day): 0% | Eos (72 h, time 3 day): 1% | Fbg (72 h, time 3 day): 290.4 mg/dL | Hb (72 h, time 3 day): 12.9 g/dL | Ht (72 h, time 3 day): 37.6% | Lym (72 h, time 3 day): 76.8% | MCH (72 h, time 3 day): 21.1 pg | MCHC (72 h, time 3 day): 34.2% | MCV (72 h, time 3 day): 61.7 fL | Mono (72 h, time 3 day): 2.6% | Neu (72 h, time 3 day): 18.8% | PT (72 h, time 3 day): 16.1 s | Plat (72 h, time 3 day): 127.4 x10_4/uL | RBC (72 h, time 3 day): 610 x10_4/ul | Ret (72 h, time 3 day): 5.7% | WBC (72 h, time 3 day): 113.8 x10_2/uL | KIDNEY_L (72 h, time 3 day): 1 g | KIDNEY_R (72 h, time 3 day): 1 g | KIDNEY_TOTAL (72 h, time 3 day): 2 g | LIVER (72 h, time 3 day): 10.3 g | A/G (72 h, time 3 day): 1.3 | ALP (72 h, time 3 day): 1374.2 IU/L | ALT (72 h, time 3 day): 40.6 IU/L | AST (72 h, time 3 day): 74 IU/L | BUN (72 h, time 3 day): 17.2 mg/dL | CRE (72 h, time 3 day): 0.2 mg/dL | Ca (72 h, time 3 day): 10.9 mg/dL | Cl (72 h, time 3 day): 106.6 meq/L | DBIL (72 h, time 3 day): 0 mg/dL | GLC (72 h, time 3 day): 195.8 mg/dL | IP (72 h, time 3 day): 6.8 mg/dL | K (72 h, time 3 day): 4.7 meq/L | LDH (72 h, time 3 day): 183.8 IU/L | Na (72 h, time 3 day): 142.2 meq/L | PL (72 h, time 3 day): 141.6 mg/dL | RALB (72 h, time 3 day): 3.1 g/dL | TBIL (72 h, time 3 day): 0.008 mg/dL | TC (72 h, time 3 day): 73.2 mg/dL | TG (72 h, time 3 day): 95.2 mg/dL | TP (72 h, time 3 day): 5.4 g/dL | gamma-GTP (72 h, time 3 day): 1.8 IU/L | TERMINAL_BW ([…], time 7 day): 262.2 g | TERMINAL_BW ([…], time 14 day): 322.5 g | TERMINAL_BW ([…], time 28 day): 396.1 g | APTT ([…], time 7 day): 22.5 s | Bas ([…], time 7 day): 0% | Eos ([…], time 7 day): 1% | Fbg ([…], time 7 day): 274.8 mg/dL | Hb ([…], time 7 day): 13.7 g/dL | Ht ([…], time 7 day): 39.4% | Lym ([…], time 7 day): 80.4% | MCH ([…], time 7 day): 21.3 pg | MCHC ([…], time 7 day): 34.9% | MCV ([…], time 7 day): 61 fL | Mono ([…], time 7 day): 2% | Neu ([…], time 7 day): 15.6% | PT ([…], time 7 day): 16 s | Plat ([…], time 7 day): 111 x10_4/uL | RBC ([…], time 7 day): 645.6 x10_4/ul | Ret ([…], time 7 day): 4.8% | WBC ([…], time 7 day): 97.9 x10_2/uL | APTT ([…], time 14 day): 22 s | Bas ([…], time 14 day): 0% | Eos ([…], time 14 day): 0.8% | Fbg ([…], time 14 day): 293.8 mg/dL | Hb ([…], time 14 day): 14 g/dL | Ht ([…], time 14 day): 39.5% | Lym ([…], time 14 day): 79.4% | MCH ([…], time 14 day): 20.6 pg | MCHC ([…], time 14 day): 35.5% | MCV ([…], time 14 day): 58.3 fL | Mono ([…], time 14 day): 3.2% | Neu ([…], time 14 day): 15% | PT ([…], time 14 day): 16.3 s | Plat ([…], time 14 day): 109.5 x10_4/uL | RBC ([…], time 14 day): 679 x10_4/ul | Ret ([…], time 14 day): 3.4% | WBC ([…], time 14 day): 120 x10_2/uL | APTT ([…], time 28 day): 25.7 s | Bas ([…], time 28 day): 0% | Eos ([…], time 28 day): 1% | Fbg ([…], time 28 day): 299.6 mg/dL | Hb ([…], time 28 day): 15.2 g/dL | Ht ([…], time 28 day): 42.3% | Lym ([…], time 28 day): 74.6% | MCH ([…], time 28 day): 19.6 pg | MCHC ([…], time 28 day): 35.8% | MCV ([…], time 28 day): 54.8 fL | Mono ([…], time 28 day): 3.4% | Neu ([…], time 28 day): 19.6% | PT ([…], time 28 day): 16.3 s | Plat ([…], time 28 day): 105.3 x10_4/uL | RBC ([…], time 28 day): 772.2 x10_4/ul | Ret ([…], time 28 day): 2.2% | WBC ([…], time 28 day): 111.8 x10_2/uL | KIDNEY_L ([…], time 7 day): 1 g | KIDNEY_R ([…], time 7 day): 1.1 g | KIDNEY_TOTAL ([…], time 7 day): 2.1 g | KIDNEY_L ([…], time 14 day): 1.2 g | KIDNEY_R ([…], time 14 day): 1.2 g | KIDNEY_TOTAL ([…], time 14 day): 2.4 g | KIDNEY_L ([…], time 28 day): 1.3 g | KIDNEY_R ([…], time 28 day): 1.3 g | KIDNEY_TOTAL ([…], time 28 day): 2.7 g | LIVER ([…], time 7 day): 12.2 g | LIVER ([…], time 14 day): 13.6 g | LIVER ([…], time 28 day): 14.9 g | A/G ([…], time 7 day): 1.2 | ALP ([…], time 7 day): 1257.2 IU/L | ALT ([…], time 7 day): 35.4 IU/L | AST ([…], time 7 day): 63 IU/L | BUN ([…], time 7 day): 17.6 mg/dL | CRE ([…], time 7 day): 0.2 mg/dL | Ca ([…], time 7 day): 10.7 mg/dL | Cl ([…], time 7 day): 105.6 meq/L | DBIL ([…], time 7 day): 0 mg/dL | GLC ([…], time 7 day): 210.6 mg/dL | IP ([…], time 7 day): 7.3 mg/dL | K ([…], time 7 day): 4 meq/L | LDH ([…], time 7 day): 167.4 IU/L | Na ([…], time 7 day): 142 meq/L | PL ([…], time 7 day): 141.6 mg/dL | RALB ([…], time 7 day): 3 g/dL | TBIL ([…], time 7 day): 0.018 mg/dL | TC ([…], time 7 day): 67.2 mg/dL | TG ([…], time 7 day): 108.8 mg/dL | TP ([…], time 7 day): 5.5 g/dL | gamma-GTP ([…], time 7 day): 1.4 IU/L | A/G ([…], time 14 day): 1.3 | ALP ([…], time 14 day): 1494.8 IU/L | ALT ([…], time 14 day): 36.8 IU/L | AST ([…], time 14 day): 69.4 IU/L | BUN ([…], time 14 day): 19.2 mg/dL | CRE ([…], time 14 day): 0.2 mg/dL | Ca ([…], time 14 day): 10.9 mg/dL | Cl ([…], time 14 day): 104.6 meq/L | DBIL ([…], time 14 day): 0 mg/dL | GLC ([…], time 14 day): 204.2 mg/dL | IP ([…], time 14 day): 7.2 mg/dL | K ([…], time 14 day): 4.3 meq/L | LDH ([…], time 14 day): 176.8 IU/L | Na ([…], time 14 day): 141.6 meq/L | PL ([…], time 14 day): 144.4 mg/dL | RALB ([…], time 14 day): 3.1 g/dL | TBIL ([…], time 14 day): 0.006 mg/dL | TC ([…], time 14 day): 65.8 mg/dL | TG ([…], time 14 day): 119.8 mg/dL | TP ([…], time 14 day): 5.6 g/dL
